Data reported in patent US10584127B2, “3,3-difluoropiperidine carbamate heterocyclic compounds as NR2B NMDA receptor antagonists” (Rugen Holdings (Cayman) Limited, priority 2015, dated 2020).

Assays:
[1] = target: CYP2D6 (Homo sapiens (Human), UniProt P10635); assay: CYP P450 enzyme inhibition, pooled human liver microsome; format: in vitro ADME; settings: HLM, dextromethorphan 5 μM
Protocol: Those CYP isoforms and their corresponding probe substrates are as follows: CYP1A2 (phenacetin, 30 μM), CYP2C9 (tolutamide, 100 μM), CYP2C19 (S-mephenytoin, 40 μM), CYP2D6 (dextromethorphan, 5 μM) and CYP3A4 (midazolam, 1 μM). All probe substrates were used at concentrations near or below their Kms. For experiment, a reaction mixture of test compound at 10 μM or in serial dilution, CYP probe substrate described above and 0.2 mg/mL pooled HLM in phosphate buffer, pH 7.4 in a final volume of 200 μL was pre-incubated at 37° C. for 10 minutes in triplicate. The reaction was initiated by addition of NADPH at final concentration of 1 mM. The reaction was terminated after 10 minutes (CYP1A2, CYP2D6 and CYP3A4) or 30 minutes (CYP2C9 and CYP2C19) by addition of 100 μL ice-cold acetonitrile with internal standard (IS). The samples were then centrifuged at 13,000 rpm and the supernatants were injected to LC-MS/MS (Agilent Technologies) to quantify the concentration of the specific metabolites of the probe substrates formed by individual CYP450 isoforms. The inhibition ratio is calculated as: (Mt−M0)/Mwater×100% in which Mt and M0 represent the concentrations of the specific probe substrate metabolite, which was formed by individual CYP450 isoform, at the beginning and end of the reaction in the presence of test compound; while Mwater represents the concentration of the specific metabolite at the end of the reaction in the absence of test compound. Test compound concentration-dependent response data experiments performed in triplicate.

[2] = tested on: NMDA receptor (all subtypes), native rat brain receptors; assay: [3H] MK-801 radioligand binding assay, rat brain membranes; settings: 2 nM [3H] MK-801, rat brain membranes
Protocol: This example describes NMDA receptor binding assays using two different radioligands, [^3H] […] An established binding assay using the non-selective NMDA receptor ligand [^3H] […] The binding assay method using the NR2B selective receptor ligand [^3H] […] This assay serves as a selective measure of NR2B receptor binding activity in native rat brain receptors. Briefly, the brains of Male Wistar rats were homogenized (Polytron) before centrifugation at 40,000×g for 15 minutes at 4° C. After 2 washes, the final pellet was homogenized and stored at −80° C. The protein concentration was determined by Bradford assay.
Test compounds were solubilized at 10 mM in DMSO. Then the dilutions were performed with a constant solvent concentration (1% DMSO) in the assay.
After incubation for 4.5 h at room temperature, the assays were filtered on GF/B filters pretreated with 0.3% (v/v) PEI with a Brandel system for [^3H] […] The experiment was performed in duplicate (n=2).

[3] = target: cloned human NR1/NR2A (Homo sapiens (Human), UniProt Q12879); assay: NR2A antagonist activity, Fluo-4 calcium influx in HEK293 cells; format: cell-based; settings: glutamate 100 μM, glycine 50 μM
Protocol: Activation of the NR2A or NR2B subtype of NMDA receptor with glutamate as an agonist and glycine co-agonist on these cells results in calcium influx, which can be monitored with fluorescent indicator Fluo-4.
For experiments, the cells were seeded onto poly-D-lysine-coated 96-well black plates with clear bottom (Corning) at a density of ^˜50,000 cells/well. After overnight culture, the growth medium was removed from the wells and the cells were incubated at 37° C. for 60 min in Hanks buffer containing 4 μM fluo-4-AM (Invitrogen) and 0.1% bovine serum albumin (BSA). After dye-loading, the cells were washed three times with Hanks buffer and incubated for 10 min at room temperature with various concentrations of test compounds prepared in Hanks buffer with 0.1% BSA. The cell plates were placed onto FDSS μCell fluorescence reader (Hamamatsu). After 20 sec reading of background fluorescence, agonist glutamate at final 100 μM and co-agonist glycine at final 50 μM were added to the cells to activate the receptor, and the resulting fluorescence changes were recorded and quantified. Based on the changes in fluorescence intensity, the pharmacological effect of test compounds were analyzed and the IC50 values derived from a non-linear least squares fitting of the concentration-dependent response to a standard logistic equation using Prism (Graphpad, Inc): Amplitude=Max Amplitude/(1+(IC50/[antagonist])^n).

[4] = tested on: electroconvulsive threshold (tonic convulsions); assay: Electroconvulsive Threshold Test (ECT); format: in vivo, rats; settings: rats
Protocol: Rats were administered ECS (rectangular current: 0.6 ms pulse width, 1.5 s duration, 200 Hz) via earclip electrodes connected to a constant current shock generator (Ugo Basile: type 7801). Test compounds were administered by oral gavage (p.o.) 1 hour before the test at a dose volume of 5 mL/kg.
Treatment groups of 20 rats were exposed to ECS as follows: The first animal was exposed to 30 mA of ECS. […] (increases of 5 mA) until the first tonic convulsion was observed. Once the first tonic convulsion was observed, the intensity of ECS was decreased by 2 mA for the next animal and then decreased or increased by 2 mA from animal to animal depending on whether the previous animal convulsed or not. If the first animal did convulse (tonic convulsions) within 5 seconds, animal n°2 is exposed to 25 mA, etc . . . (decreases of 5 mA) until the absence of tonic convulsions was observed. At this point, the intensity of ECS was increased by 2 mA for the next animal and then decreased or increased by 2 mA from animal to animal depending on whether the previous animal convulsed or not. The minimum current intensity applied is 5 mA and the maximum 95 mA. The first 5 animals serve to approach threshold current and were not included in the analysis. The results are presented as the mean current intensity administered to the final 15 animals of a group. The test was performed blind. A positive percent change indicates an anticonvulsant effect. A negative percent change indicates a proconvulsant effect. The test substance was evaluated at 4 doses, typically using 0.5% dimethylsulfoxide, 4% hydroxypropyl-b-cyclodextrin water as a vehicle, and administered p.o. 60 minutes before ECS, and compared with a vehicle control group. Diazepam (16 mg/kg p.o.), administered under the same experimental conditions, was used as reference substance. The experiment included 6 groups. Data with the test substance was analyzed by comparing treated groups with vehicle control using one-way ANOVA followed by Dunnett's t tests.

[5] = tested on: pentylenetetrazole-induced convulsions; assay: Pentylenetetrazole (PTZ) Seizure Test; format: in vivo, rats; settings: 10 mg/kg p.o., mesylate salt, PTZ 100 mg/kg s.c.
Protocol: Rats, placed in individual macrolon cages (25×19×13 cm), were injected with pentylenetetrazole (PTZ) (100 mg/kg s.c.). The occurrence and latency of clonic and tonic convulsions and death were noted over a 30 minute period. 15 rats were studied per group. The test was performed blind.
Test compound E1-8.2 was administered as the free base.
Compounds were evaluated typically using 0.5% dimethylsulfoxide, 4% hydroxypropyl-b-cyclodextrin water as a vehicle at 1 or more doses (e.g., 1, 3 and 10 mg/kg), administered p.o. 30 minutes before PTZ, and compared with a vehicle control group. Diazepam (16 mg/kg p.o.), administered 60 minutes before PTZ, was used as reference substance. The experiment was performed over 2 separate sub-experiments with N=7 to 8 animals per group and per sub-experiment. Quantitative data (latencies) with the test substance was analyzed by comparing treated groups with vehicle control using Kruskal-Wallis test followed by Mann-Whitney U test. Quantitative data with the reference substance was analyzed using Mann-Whitney U test. Quantal data (frequencies) was analyzed by comparing treated groups with vehicle control using Fisher's Exact Probability tests (*=p<0.05; **=p<0.01; ***=p<0.001).

Chain of CYP2D6 (P10635 whole entry): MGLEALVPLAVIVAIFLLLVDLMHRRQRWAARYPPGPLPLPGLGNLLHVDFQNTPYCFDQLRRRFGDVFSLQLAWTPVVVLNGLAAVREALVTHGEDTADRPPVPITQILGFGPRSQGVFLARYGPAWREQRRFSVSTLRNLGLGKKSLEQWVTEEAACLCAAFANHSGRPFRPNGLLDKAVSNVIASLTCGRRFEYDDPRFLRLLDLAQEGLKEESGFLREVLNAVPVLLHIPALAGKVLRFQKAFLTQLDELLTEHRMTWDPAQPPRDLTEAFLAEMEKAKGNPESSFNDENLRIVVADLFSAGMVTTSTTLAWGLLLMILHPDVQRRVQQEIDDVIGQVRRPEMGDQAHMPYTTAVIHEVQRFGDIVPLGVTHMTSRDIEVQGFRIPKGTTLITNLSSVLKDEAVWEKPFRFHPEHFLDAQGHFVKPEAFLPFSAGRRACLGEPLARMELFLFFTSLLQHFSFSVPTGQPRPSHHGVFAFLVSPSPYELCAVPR
Chain of cloned human NR1/NR2A (Q12879 23-1464, other chains not shown): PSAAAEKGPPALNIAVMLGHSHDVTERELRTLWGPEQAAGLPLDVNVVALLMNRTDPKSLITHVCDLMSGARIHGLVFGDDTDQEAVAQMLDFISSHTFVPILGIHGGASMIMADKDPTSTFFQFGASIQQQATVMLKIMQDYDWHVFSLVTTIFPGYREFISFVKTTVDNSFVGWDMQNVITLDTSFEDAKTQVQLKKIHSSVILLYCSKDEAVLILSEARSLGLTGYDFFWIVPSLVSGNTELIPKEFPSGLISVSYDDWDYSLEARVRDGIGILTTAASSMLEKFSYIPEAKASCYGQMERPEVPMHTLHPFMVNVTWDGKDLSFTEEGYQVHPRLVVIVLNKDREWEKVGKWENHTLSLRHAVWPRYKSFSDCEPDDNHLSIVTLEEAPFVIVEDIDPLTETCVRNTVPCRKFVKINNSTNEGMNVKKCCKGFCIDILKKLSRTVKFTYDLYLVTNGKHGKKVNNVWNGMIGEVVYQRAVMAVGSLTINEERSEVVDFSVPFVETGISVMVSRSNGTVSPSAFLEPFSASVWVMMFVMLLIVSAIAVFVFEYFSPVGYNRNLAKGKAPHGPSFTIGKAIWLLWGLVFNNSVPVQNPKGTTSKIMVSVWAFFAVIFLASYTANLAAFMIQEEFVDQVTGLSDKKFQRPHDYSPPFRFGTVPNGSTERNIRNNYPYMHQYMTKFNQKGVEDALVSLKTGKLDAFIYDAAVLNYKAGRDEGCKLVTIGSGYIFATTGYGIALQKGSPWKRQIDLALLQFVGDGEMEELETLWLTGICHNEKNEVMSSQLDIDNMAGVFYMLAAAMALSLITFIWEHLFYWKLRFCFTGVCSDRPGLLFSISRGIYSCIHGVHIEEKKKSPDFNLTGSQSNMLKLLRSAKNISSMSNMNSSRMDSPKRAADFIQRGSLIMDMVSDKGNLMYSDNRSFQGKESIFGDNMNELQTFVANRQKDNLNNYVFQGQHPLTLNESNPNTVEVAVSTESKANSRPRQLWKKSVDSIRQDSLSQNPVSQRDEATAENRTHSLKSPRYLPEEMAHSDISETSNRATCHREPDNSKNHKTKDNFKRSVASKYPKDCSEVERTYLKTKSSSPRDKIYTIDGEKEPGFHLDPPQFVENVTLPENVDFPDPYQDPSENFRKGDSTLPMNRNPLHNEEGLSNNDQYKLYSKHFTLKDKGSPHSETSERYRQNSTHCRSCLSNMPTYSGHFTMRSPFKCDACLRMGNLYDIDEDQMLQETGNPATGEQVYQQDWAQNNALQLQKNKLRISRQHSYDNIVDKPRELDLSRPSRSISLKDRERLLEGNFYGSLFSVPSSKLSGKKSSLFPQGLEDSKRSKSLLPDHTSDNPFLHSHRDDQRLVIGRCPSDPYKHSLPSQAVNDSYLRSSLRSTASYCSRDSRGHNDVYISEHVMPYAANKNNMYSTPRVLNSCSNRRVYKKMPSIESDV

**Q.** `O=C(OCc1ccc(Cl)cc1)N1CC[C@H](CNc2nccn3cnnc23)C(F)(F)C1` [Compound E1-1.3, R-4-chlorobenzyl 4-(([1,2,4]triazolo[4,3-a]pyrazin-8-ylamino)methyl)-3,3-difluoropiperidine-1-carboxylate] was tested. Which “CYP2D6 @ 10 μM (%)” value [1] did it give?
**A.** 37%

**Q.** What about the “partial effect on [3H] MK-801 binding” value [2] of the same molecule?
**A.** 41%

**Q.** Which results are given for `O=C(OCc1ccc(F)cc1)N1CC[C@H](CNc2nccn3cnnc23)C(F)(F)C1` [Compound E1-1.4, R-4-fluorobenzyl 4-(([1,2,4]triazolo[4,3-a]pyrazin-8-ylamino)methyl)-3,3-difluoropiperidine-1-carboxylate]?
**A.** CYP2D6 @ 10 μM (%) [1]: 19%; partial effect on [3H] MK-801 binding [2]: 32%

**Q.** How did the “partial effect on [3H] MK-801 binding” value [2] turn out when `CCc1ccc(COC(=O)N2CC[C@H](CNc3nccn4cnnc34)C(F)(F)C2)cc1` [Compound E1-1.5, R-4-ethylbenzyl 4-(([1,2,4]triazolo[4,3-a]pyrazin-8-ylamino)methyl)-3,3-difluoropiperidine-1-carboxylate] was run?
**A.** 48%

**Q.** Which “CYP2D6 @ 10 μM (%)” value [1] does the source give for `Cc1ccc(COC(=O)N2CC[C@H](CNc3cncc4nncn34)C(F)(F)C2)cc1` [Compound E1-2.2, R-4-methylbenzyl 4-(([1,2,4]triazolo[4,3-a]pyrazin-5-ylamino)methyl)-3,3-difluoropiperidine-1-carboxylate] here?
**A.** 18%

**Q.** Which results are given for `Cc1ccc(COC(=O)N2CC[C@H](CNc3ncc4cn[nH]c4n3)C(F)(F)C2)cc1` [Compound E1-8.2, (+)-R-4-methylbenzyl-4-((1H-pyrazolo[3,4-d]pyrimidin-6-ylamino)methyl)-3,3-difluoropiperidine-1-carboxylate]?
**A.** IC50 [3]: > 10 µM; CYP2D6 @ 10 μM (%) [1]: 83%; partial effect on [3H] MK-801 binding [2]: 33%; activity on electroconvulsive threshold ([4]; 0.5 and 2 mpk p.o., free base): modest proconvulsant activity; activity on electroconvulsive threshold ([4]; 10 and 20 mpk p.o., free base): anticonvulsant activity

**Q.** `Cc1ccc(COC(=O)N2CC[C@H](CNc3nc4ccccn4n3)C(F)(F)C2)cc1` [Compound E1-9.2, (+)-R-4-methylbenzyl 4-(([1,2,4]triazolo[1,5-α]pyridin-2-ylamino)methyl)-3,3-difluoropiperidine-1-carboxylate] was tested. Which IC50 [3] did it give?
**A.** > 10 µM

**Q.** And the “CYP2D6 @ 10 μM (%)” value [1]?
**A.** 14%

**Q.** And the “partial effect on [3H] MK-801 binding” value [2]?
**A.** 34%

**Q.** For `Cc1ccc(COC(=O)N2CC[C@H](CNc3cnccn3)C(F)(F)C2)cc1` [Compound E1-21.2, R-4-methylbenzyl 3,3-difluoro-4-((pyrazin-2-ylamino)methyl)piperidine-1-carboxylate], which “CYP2D6 @ 10 μM (%)” value [1] is on record?
**A.** 97%

**Q.** And the “partial effect on [3H] MK-801 binding” value [2]?
**A.** 49%

**Q.** With `Cc1ccc(COC(=O)N2CC[C@H](CNc3cnc(C)cn3)C(F)(F)C2)cc1` [Compound E1-21.26, R-4-methylbenzyl 3,3-difluoro-4-((5-methylpyrazin-2-ylamino)-methyl)piperidine-1-carboxylate] as the molecule, how does the “CYP2D6 @ 10 μM (%)” value [1] read?
**A.** 32%

**Q.** And the “partial effect on [3H] MK-801 binding” value [2]?
**A.** 41%

**Q.** And the “activity on electroconvulsive threshold” value ([4]; 3 and 10 mpk p.o., mesylate salt)?
**A.** anticonvulsant activity

**Q.** What about the “latency to death, change vs vehicle controls” value [5] of the same molecule?
**A.** +31%

**Q.** What about the “number of deaths, change vs vehicle controls” value [5] of the same molecule?
**A.** −82%

**Q.** Which “partial effect on [3H] MK-801 binding” value [2] does the source give for `Cc1ccc(COC(=O)N2CC[C@@H](CNc3nccn4cnnc34)C(F)(F)C2)cc1` [Compound E2-1.2, (−)-S-4-methylbenzyl 4-(([1,2,4]triazolo[4,3-a]pyrazin-8-ylamino)methyl)-3,3-difluoropiperidine-1-carboxylate] here?
**A.** 36%

**Q.** `FC(F)(F)c1ccc(C(F)(F)CN2CCC(Nc3ncnc4[nH]ncc34)CC2)cc1` [LX-1, reference compound] was tested. Which “CYP2D6 @ 10 μM (%)” value [1] did it give?
**A.** 93%

**Q.** With `Cn1c(=O)c2[nH]cnc2n(C)c1=O` [theophylline, reference compound] as the molecule, how does the “activity on electroconvulsive threshold” value ([4]; 128 mpk p.o.) read?
**A.** expected proconvulsant activity
